# Results as given in patent publication US20240208992A1, “MACROCYCLES AS CFTR MODULATORS” (Idorsia Pharmaceuticals Ltd, priority 2021, published 2024).
# Target: human F508del-CFTR (Homo sapiens, UniProt P13569, DEL508-508)
# Assay: F508del-CFTR cell surface expression (corrector activity), DiscoveRx ß-galactosidase complementation chemiluminescence assay in recombinant U2OS cell line;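 also: U2OS cells co-expressing ProLink-tagged F508del-CFTR and a membrane-anchored enzyme acceptor, where more surface CFTR restores β-galactosidase activity measured by chemiluminescence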
# Settings: for EC50: EC50, F508del-CFTR cell surface expression; for Emax: U2OS
# [1] = U2OS cell line, 16h compound incubation, geomean values
# [2] = in relation to the Emax of the corrector lumacaftor (=100%), U2OS cell line, 16h compound incubation, arithmetic mean values
# [3] = U2OS cells, 16h compound incubation, geomean of several measurements
# [4] = in relation to the Emax of the corrector lumacaftor (=100%), U2OS cells, 16h compound incubation, arithmetic mean
# [5] = U2OS cells, 16h compound incubation, geomean values
# [6] = in relation to Emax of corrector lumacaftor (=100%), arithmetic mean values
# Sequence of human F508del-CFTR (P13569 with tags, fused parts or gaps DEL508-508): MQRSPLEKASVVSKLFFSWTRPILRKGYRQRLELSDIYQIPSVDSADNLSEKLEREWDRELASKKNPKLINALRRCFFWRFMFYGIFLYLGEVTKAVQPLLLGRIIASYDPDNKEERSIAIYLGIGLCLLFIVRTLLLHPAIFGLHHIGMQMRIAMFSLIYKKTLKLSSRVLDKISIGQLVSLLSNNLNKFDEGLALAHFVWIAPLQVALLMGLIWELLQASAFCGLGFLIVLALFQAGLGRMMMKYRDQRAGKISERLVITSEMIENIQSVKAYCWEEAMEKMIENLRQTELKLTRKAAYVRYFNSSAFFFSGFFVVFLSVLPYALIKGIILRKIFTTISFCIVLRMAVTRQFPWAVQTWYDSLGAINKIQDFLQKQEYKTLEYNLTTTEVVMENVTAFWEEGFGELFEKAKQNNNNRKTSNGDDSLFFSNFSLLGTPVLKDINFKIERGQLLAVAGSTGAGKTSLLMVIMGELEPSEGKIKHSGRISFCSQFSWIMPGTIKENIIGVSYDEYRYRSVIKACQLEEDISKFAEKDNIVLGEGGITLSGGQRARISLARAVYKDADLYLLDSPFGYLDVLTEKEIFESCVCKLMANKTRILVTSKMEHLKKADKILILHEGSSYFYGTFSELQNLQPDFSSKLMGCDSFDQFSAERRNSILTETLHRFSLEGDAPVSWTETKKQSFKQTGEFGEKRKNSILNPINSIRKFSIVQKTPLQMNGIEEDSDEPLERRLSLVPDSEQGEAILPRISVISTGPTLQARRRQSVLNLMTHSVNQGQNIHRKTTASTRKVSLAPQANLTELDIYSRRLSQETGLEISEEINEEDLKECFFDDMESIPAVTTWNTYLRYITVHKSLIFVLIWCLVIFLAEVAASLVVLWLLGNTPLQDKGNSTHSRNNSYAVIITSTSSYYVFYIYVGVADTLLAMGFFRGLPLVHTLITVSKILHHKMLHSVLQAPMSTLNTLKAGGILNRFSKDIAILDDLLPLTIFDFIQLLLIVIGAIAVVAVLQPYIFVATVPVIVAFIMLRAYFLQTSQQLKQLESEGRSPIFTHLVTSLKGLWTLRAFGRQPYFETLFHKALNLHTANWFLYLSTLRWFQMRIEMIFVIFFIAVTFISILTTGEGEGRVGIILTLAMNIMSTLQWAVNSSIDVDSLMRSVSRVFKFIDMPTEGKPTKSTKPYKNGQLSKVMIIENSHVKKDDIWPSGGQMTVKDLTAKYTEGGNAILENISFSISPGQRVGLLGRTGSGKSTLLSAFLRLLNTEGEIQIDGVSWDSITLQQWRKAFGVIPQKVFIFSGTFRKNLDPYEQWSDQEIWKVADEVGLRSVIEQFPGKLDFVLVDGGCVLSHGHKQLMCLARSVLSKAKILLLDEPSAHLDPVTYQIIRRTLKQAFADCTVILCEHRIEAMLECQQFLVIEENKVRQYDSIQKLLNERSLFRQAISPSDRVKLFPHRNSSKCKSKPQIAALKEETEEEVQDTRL
EC50 [3],Emax [4],SMILES,EC50 [1],Emax [2],EC50 [5],Emax [6]
–,–,"COc1cccc(CCNC(=O)[C@@H]2CC(=O)N(C)[C@@H](CC(C)C)C(=O)N(CCC3CCCCC3)CC(=O)N[C@H](Cc3ccccc3)COc3cnccc3C(=O)N2)c1 [Example 266, (3R,9S,13S)-3-benzyl-7-(2-cyclohexylethyl)-9-isobutyl-N-(3-methoxyphenethyl)-10-methyl-5,8,11,15-tetraoxo-2,3,4,5,6,7,8,9,10,11,12,13,14,15-tetradecahydropyrido[4,3-p][1]oxa[4,7,10,14]tetraazacycloheptadecine-13-carboxamide]",357 nM,136%,–,–
92 nM,286%,"CC(C)C[C@H]1C(=O)N(C)[C@H](Cc2nc(C(F)(F)F)no2)C(=O)N[C@H](Cc2ccccc2)COc2ccc3ncc(F)cc3c2C(=O)N[C@H](C(=O)NCCCOC(F)(F)F)CC(=O)N1C [Example 925, (3S,7S,10R,13R)-13-benzyl-20-fluoro-7-isobutyl-6,9-dimethyl-1,5,8,11-tetraoxo-N-(3-(trifluoromethoxy)propyl)-10-((3-(trifluoromethyl)-1,2,4-oxadiazol-5-yl)methyl)-1,2,3,4,5,6,7,8,9,10,11,12,13,14-tetradecahydro-[1]oxa[4,7,10,14]tetraazacycloheptadecino[16,17-f]quinoline-3-carboxamide]",–,–,–,–
–,–,"CCc1ccc(CCNC(=O)[C@@H]2CC(=O)N(C)[C@@H](CC(C)C)C(=O)N(C)CC(=O)N[C@H](Cc3ccccc3)COc3cccc(OC)c3C(=O)N2)cc1 [Example 239, (3R,9S,13S)-3-benzyl-N-(4-ethylphenethyl)-9-isobutyl-16-methoxy-7,10-dimethyl-5,8,11,15-tetraoxo-2,3,4,5,6,7,8,9,10,11,12,13,14,15-tetradecahydrobenzo[p][1]oxa[4,7,10,14]tetraazacycloheptadecine-13-carboxamide]",514 nM,142%,–,–
–,–,"COc1noc(CCNC(=O)[C@@H]2CC(=O)N(C)[C@@H](CC(C)C)C(=O)N3CCCC[C@@H]3C(=O)N[C@H](Cc3ccccc3)COc3cc(C)nc(OC)c3C(=O)N2)c1F [Example 766, (7S,11S,17aR,20R)-20-benzyl-N-(2-(4-fluoro-3-methoxyisoxazol-5-yl)ethyl)-11-isobutyl-4-methoxy-2,10-dimethyl-5,9,12,18-tetraoxo-5,6,7,8,9,10,11,12,15,16,17,17a,18,19,20,21-hexadecahydro-14H-dipyrido[2,1-f:3′,4′-p][1]oxa[4,7,10,14]tetraazacycloheptadecine-7-carboxamide]",–,–,154 nM,393%
–,–,"COc1cccc(CCNC(=O)[C@@H]2CC(=O)N(C)[C@@H](CC(C)C)C(=O)N(C)CC(=O)N[C@H](Cc3ccccc3)COc3nccc(OC)c3C(=O)N2)c1 [Example 513, (3R,9S,13S)-3-benzyl-9-isobutyl-16-methoxy-N-(3-methoxyphenethyl)-7,10-dimethyl-5,8,11,15-tetraoxo-2,3,4,5,6,7,8,9,10,11,12,13,14,15-tetradecahydropyrido[3,2-p][1]oxa[4,7,10,14]tetraazacycloheptadecine-13-carboxamide]",–,–,815 nM,169%
1150 nM,224%,"COc1nccc2c1C(=O)N[C@H](C(=O)NCCCOC(F)F)CC(=O)N(C)[C@@H](CC(C)C)C(=O)N1CCCC[C@@H]1C(=O)N[C@H](Cc1ccccc1)CO2 [Example 850, (7S,11S,17aR,20R)-20-benzyl-N-(3-(difluoromethoxy)propyl)-11-isobutyl-4-methoxy-10-methyl-5,9,12,18-tetraoxo-5,6,7,8,9,10,11,12,15,16,17,17a,18,19,20,21-hexadecahydro-14H-dipyrido[2,1-f:3′,4′-p][1]oxa[4,7,10,14]tetraazacycloheptadecine-7-carboxamide]",–,–,–,–
